Changes are numbered by the printed parent chain. Several values for one entry are separate records, joined by “and”; a condition that tells them apart may be missing. Equal values may be shown once. Where a name gives a salt, the structure may show the parent alone. Read-outs that look alike come from different tables or passages of the source.
How the values were obtained:
[1] = biological target: T1, M1 central muscarinic cholinergic receptors (Mus musculus, UniProt P12657); assay: Antagonism of rotational behavior induced by intrastriatal injection of pirenzepine in mice; format: in vivo, mice (female, Swiss, CD 1); settings: ip, read-out: Pirenzepine antagonism ED50
T1 construct: The intrastriatal injection of PZ into mice induces rotational behavior; from tissue; host or cells: right striatum of living female mice (Swiss, CD 1)
T1 sequence (P12657 1-460): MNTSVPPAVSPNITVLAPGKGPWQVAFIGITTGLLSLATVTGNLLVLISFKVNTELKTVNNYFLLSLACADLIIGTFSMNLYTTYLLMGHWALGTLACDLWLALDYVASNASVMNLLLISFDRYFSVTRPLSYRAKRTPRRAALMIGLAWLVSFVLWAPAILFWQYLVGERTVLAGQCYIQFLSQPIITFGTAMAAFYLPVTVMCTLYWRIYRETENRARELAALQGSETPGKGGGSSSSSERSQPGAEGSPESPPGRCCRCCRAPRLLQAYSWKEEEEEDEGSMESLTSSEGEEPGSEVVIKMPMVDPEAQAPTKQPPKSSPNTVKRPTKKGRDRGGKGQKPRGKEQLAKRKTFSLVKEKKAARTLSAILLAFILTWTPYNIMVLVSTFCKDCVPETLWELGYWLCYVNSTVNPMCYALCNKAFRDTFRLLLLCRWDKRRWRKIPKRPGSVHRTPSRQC
Method: Pirenzepine (PZ) is a specific antagonist of M1 central muscarinic cholinergic receptors. The intrastriatal injection of PZ into mice induces rotational behavior. The antagonism of this behavior by the products according to the invention was studied.
The products according to the invention are injected intraperitoneally (i.p.) after solubilization in distilled water or suspension in a 5% solution of gum arabic. The control animals receive an injection of the pure solvent under the same conditions.
The animals used are female mice (Swiss, CD 1, Charles River, France) with a body weight of between 25 and 30 grams.
Pirenzepine is dissolved in a phosphate buffer; the pH of the solution is 6.
The products to be studied or their solvents are injected intraperitoneally, in a volume of 0.4 ml per 20 g of body weight, 15 minutes before a direct injection of pirenzepine at a dose of […] into the right striatum of the mouse, according to the method described by p.
The number of contralateral rotations (rotations in the opposite direction to the side injected) was counted for three 2-minute periods after the injection of pirenzepine: minutes 2 to 4, 8 to 10 and 13 to 15. Each treatment includes 3 to 4 doses and 10 animals per dose. For each treatment, the total number of rotations and the percentage antagonism compared with the control group are calculated.

[2] = biological target: T2, M1-type muscarinic cholinergic receptor (Rattus norvegicus, UniProt P08482); assay: Test for affinity for the M1-type muscarinic cholinergic receptor: displacement of [3H]pirenzepine on rat hippocampus homogenate; format: binding; settings: for IC50: rat hippocampus homogenate, 1 nM [3H]PZ, 2 h at 4° C., pH 7.40; for r = (M2 /M1): ratio of IC50 M2 (3H-NMS, guinea-pig ileum) to IC50 M1 (3H-pirenzepine, rat hippocampus)
T2 sequence (P08482 1-460): T1 sequence (P12657 1-460) with P309S
Text: (§1) The M1 -type receptors are concentrated in certain areas of the brain, such as the hippocampus, the cerebral cortex and the striatum, and also in the sympathetic ganglia. These binding sites can be selectively labeled with [^3 H]pirenzepine ([^3 H]PZ). The M2 -type receptors predominate in the heart and ileum and can be labeled with [^3 H]N-methylscopolamine ([^3 H]NMS). To determine the selectivity of our molecules towards the M1 and M2 sites, we studied their interaction in vitro with [^3 H]PZ and [^3 H]NMS bound with a high affinity to membranes of rat hippocampus and membranes of smooth muscle of guinea-pig ileum, respectively.
The interaction of the molecules with M1 -type muscarinic receptors was studied by in vitro measurement, on a homogenate of rat hippocampus, of the displacement of tritiated pirenzepine ([^3 H]PZ) from its specific binding sites. Aliquots (10 μl) of a 5% (w/v) homogenate of rat hippocampus in an Na2 HPO4 buffer (50 mM, pH 7.40) are incubated for 2 h at 4° C. in the presence of [^3 H]pZ ([…]; final concentration: 1 nM) and increasing concentrations of products to be studied. The final volume is 2 ml. The reaction is stopped by centrifugation for 10 min at 50,000 × g. After decantation and washing of the residues, the bound radioactivity is counted by liquid scintillation. The non-specific binding is determined in the presence of 10 μmol/l of atropine sulfate. The 50% inhibitory concentration (IC50) is determined graphically (Ref.: Watson J. D., Roeskoe W. R. and Yamamura H.1., Life Sci., 31, 2019-2029, 1982).
(§2) Table 4 indicates the affinities of the products of the invention for M1 and M2 receptors. The results are expressed as 50% inhibitory concentrations (IC50), i.e. the concentration (in μM) which causes a 50% displacement placement of the tritiated ligand bound to the membrane receptors. The IC50 for displacement of ^3 H-pirenzepine represents the affinity for the M1 receptor; the IC50 for displacement of 3H-NMS represents the affinity for the M2 receptor.

[3] = biological target: T3, M2-type muscarinic cholinergic receptor (Cavia porcellus, UniProt H0VRN8); assay: Test for affinity for the M2-type muscarinic cholinergic receptor: displacement of [3H]N-methylscopolamine on smooth muscle of guinea-pig ileum; format: binding; settings: guinea-pig ileum smooth muscle homogenate, 0.3 nM [3H]NMS, 20 min at 30° C., pH 7.5
T3 construct: on a homogenate of smooth muscle of guinea-pig ileum; from tissue; host or cells: guinea-pig ileum smooth muscle homogenate
T3 sequence (H0VRN8 1-466): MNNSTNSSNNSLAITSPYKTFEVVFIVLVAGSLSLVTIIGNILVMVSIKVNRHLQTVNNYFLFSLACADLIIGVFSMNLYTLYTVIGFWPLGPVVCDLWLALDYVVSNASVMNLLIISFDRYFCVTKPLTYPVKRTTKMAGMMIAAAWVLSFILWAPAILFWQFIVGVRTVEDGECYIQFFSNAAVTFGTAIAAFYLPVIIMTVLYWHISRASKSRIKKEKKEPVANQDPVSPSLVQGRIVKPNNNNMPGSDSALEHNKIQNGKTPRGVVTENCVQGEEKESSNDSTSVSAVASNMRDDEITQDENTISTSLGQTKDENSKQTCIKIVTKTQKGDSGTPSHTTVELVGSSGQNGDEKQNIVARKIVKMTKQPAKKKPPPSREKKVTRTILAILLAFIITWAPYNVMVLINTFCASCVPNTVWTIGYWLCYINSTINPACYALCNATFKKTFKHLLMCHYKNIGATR
Text: as §1
The interaction with M2 -type muscarinic receptors was studied by in vitro measurement, on a homogenate of smooth muscle of guinea-pig ileum, of the displacement of tritiated N-methylscopolamine ([^3 H]NMS) from its specific binding sites. Aliquots (50 μl) of a 0.625% (w/v) homogenate of smooth muscle of guinea-pig ileum in MEPES buffer (20 mM) containing NaCl (100 mM) and MgCl2 (10 mM) (final pH: 7.5) are incubated for 20 min at 30° C. in the presence of [^3 H]NMS ([…]; final concentration: 0.3 nM) and increasing concentrations of products to be tested. The final volume is 1 ml. The reaction is stopped by centrifugation for 5 min at 15,000 × g. The non-specific binding is determined in the presence of 10 μmol/l of atropine sulfate (Ref.: Hammer R., Berrie C. P., Birdsall N. I. M., Burgen A. S. V. and Hulme E. C., Nature, 283, 90-92, 1980; Hulme E. C., Birdsall N.1.M., Burgen A. S. V. and Mettha P., Mol. pharmacol., 14, 737-750, 1978).
as §2

[4] = mice, i.p. 15 minutes before intrastriatal pirenzepine, 50% reduction in number of rotations

Structure (SMILES)	ED50 [1, 4]	IC50 [2]	r = (M2 /M1) [2]	IC50 [3]	ED50 [1]	r = (M2 /M1) ([2]; dihydrochloride)
CCN(CC)CCNc1cc2c(nn1)-c1ccccc1CCC2 [SR 95640 A]	3 mg/kg	0.05 µM	40	2 µM	–	–
Cl.Cl.c1ccc2c(c1)ccc1cc(NCCN3CCOCC3)nnc12 [SR 95679 A, 3-(2-Morpholinoethylamino)benzo[h]cinnoline dihydrochloride]	–	3.1 µM	–	100 µM and > 100 µM	10 mg/kg	32 and > 32
Cl.Cl.c1ccc2c(c1)CCc1cc(NCCN3CCOCC3)nnc1-2 [SR 95695 A, 3-(2-Morpholinoethylamino)-5,6-dihydrobenzo[h]cinnoline dihydrochloride]	–	2.6 µM	–	100 µM and > 100 µM	5 mg/kg	38 and > 38
CCN(CC)CCSc1cc2c(nn1)-c1ccccc1CC2.Cl [SR 95743 A, 3-(2-Diethylaminoethylthio)-5,6-dihydrobenzo[h]cinnoline hydrochloride]	–	0.7 µM	14	10 µM	8 mg/kg	–
CN(C)CCOc1cc2c(nn1)-c1ccccc1CC2.Cl [SR 95745 A, 3-(2-Dimethylaminoethoxy)-5,6-dihydrobenzo[h]cinnoline hydrochloride]	–	3.9 µM	21	80 µM	8 mg/kg	–
CCN(CC)CCCNc1cc2c(nn1)-c1ccccc1CC2.Cl.Cl [SR 95746 A, 3-(3-Diethylaminopropylamino)-5,6-dihydrobenzo[h]-cinnoline dihydrochloride]	–	1.5 µM	17	25 µM	10 to 30 mg/kg	–
CCN(CC)CCNc1cc2c(nn1)-c1cc([N+](=O)[O-])ccc1CCC2.Cl.Cl [SR 95777 A, 3-(2-Diethylaminoethylamino)-10-nitro-6,7-dihydro-5H-benzocyclohepta[5,6-c]pyridazine dihydrochloride]	–	0.1 µM	56	5.6 µM	0.5 mg/kg	–
CCN(CC)CCCNc1cc2c(nn1)-c1ccccc1CCC2 [SR 95818 A]	7 mg/kg	0.24 µM	50	12 µM	–	–
CCN(CC)CCSc1cc2c(nn1)-c1ccccc1CCC2 [SR 95820 A, 3-(2-Diethylaminoethylthio)-6,7-dihydro-5H-benzocyclohepta[ [drawing 52] 5,6-c]pyridazine hydrochloride]	8 mg/kg	0.07 µM	29	2 µM	–	–
CN(C)CCOc1cc2c(nn1)-c1ccccc1CCC2.Cl [SR 95822 A, 3-(2-Dimethylaminoethoxy)-6,7-dihydro-5H-benzocyclohepta[5,6-c]pyridazine hydrochloride]	–	1 µM	9.5	9.5 µM	3 mg/kg	–
CN(C)CCNc1cc2c(nn1)-c1ccccc1CCC2 [SR 95824 A]	3 mg/kg	0.2 µM	125	25 µM	–	–
CCN(CC)CCNc1cc2c(nn1)-c1cc(Cl)ccc1CCC2.Cl.Cl [SR 95878 A, 10-Chloro-3-(2-diethylaminoethylamino)-6,7-dihydro-5H-benzocyclohepta[5,6-c]pyridazine dihydrochloride]	–	0.04 µM	26	1.1 µM	2 mg/kg	–
CCN1CCCC1CNc1cc2c(nn1)-c1ccccc1CCC2 (stereo not shown) [SR 95879 A, 3-[(1-Ethylpyrrolidin-2-yl)methylamino]-6,7-dihydro-5H-benzocyclohepta-5,6-c]pyridazine dihydrochloride]	0.3 mg/kg	0.14 µM	7	1 µM	–	–
c1ccc2c(c1)CCCc1cc(NCCN3CCCC3)nnc1-2 [SR 95883 A]	3 mg/kg	0.13 µM	35	4.5 µM	–	–
CCN(CC)CCNc1cc2c(nn1)-c1ccccc1CC2.Cl.Cl [SR 96054 A, 3-(2-Diethylaminoethylamino)-5,6-dihydrobenzo[h]cinnoline dihydrochloride]	–	0.21 µM	36	7.5 µM	3 mg/kg	–
CCN(CC)CCNc1cc2ccc3ccccc3c2nn1.Cl.Cl [SR 96055 A, 3-(2-Diethylaminoethylamino)benzo[h]cinnoline dihydrochloride]	–	0.32 µM	53	17 µM	3 mg/kg	–

From US4977152A, “Novel tricyclic derivatives which are agonists of cholinergic receptors, and drugs in which they are present” (Societe Anonyme: Sanofi, priority 1986, dated 1990)
